System: tight junctions (duodenum biopsies)
Test: Ussing chamber: HRP permeability of duodenum suction biopsies from children suffering from microvillus inclusion disease
Type: cell-based, human
Settings: after adding 4.2 g to the luminal compartment
Text: Suction biopsies of the duodenum were taken from two children suffering from microvillus inclusion disease.

Substance: carboxydextran [70 kD carboxydextran]
- HRP in the paracellular spaces or tight junctions by electron microscopy: No further HRP could be detected
